Measurements taken from publication PMC11790914, “Chemogenomics for steroid hormone receptors (NR3)” (Communications Chemistry, 2025).
Several values for one entry are separate records, joined by “and”; a condition that tells them apart may be missing. Identical values can stand only once. Like-named read-outs stand apart in the source and are kept apart here.

Key:
HEK293T cells [1] = test: Cytotoxicity: growth-rate (change in confluence over 24 h); settings: normalized to 0.1% DMSO control, single replicates (n=1...)
[2] = system: ATF6 activity in Hela ATF6 reporter cells; test: Endoplasmic reticulum stress assay (ATF6 Renilla luciferase reporter, tunicamycin); type: cell-based; settings: for ATF6 activity (tunicamycin-induced endoplasmic reticulum stress): Hela ATF6 reporter cells, tunicamycin 100 ng/mL, 18 h
How it was run: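 HeLa ATF6 Renilla reporter cells were pretreated 4 h with compounds in 0.1% DMSO, then stimulated with tunicamycin (100 ng/mL) for 18 h. Renilla luminescence (DualGlo) was normalized to 0.1% DMSO control; five independent experiments.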

ABL1 = molecular target: T1, ABL1 (Homo sapiens, UniProt P00519); test: Liability panel screening by DSF: ABL1; type: binding; settings: DSF, 20 µM, n=2; read-out: Mean ΔTM ABL1
T1 construct: made in house
How it was run: (§1)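 Thermal shift: in-house recombinant protein at 2 µM in 10 mM HEPES pH 7.5 with 500 mM NaCl, SYPRO Orange 1:1000, heated at 3 °C/min to 85 °C in technical duplicates. Tm is the Boltzmann inflection point, reported as ∆Tm in K.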

HEK293T cells [3] = test: Cytotoxicity: apoptosis induction (caspase-3/7 DEVD fluorogenic DNA dye); settings: HEK293T, 24 h, apoptotic cell count normalized to 0.1% DMSO, single replicates
GSK3B = molecular target: T2, GSK3B (Homo sapiens, UniProt P49841); test: Liability panel screening by DSF: GSK3B; type: binding; settings: DSF, 20 µM, n=2; read-out: Mean ΔTM GSK3B
T2 construct: made in house

BRD4 = molecular target: T3, BRD4 (Homo sapiens, UniProt O60885); test: Liability panel screening by DSF: BRD4; type: binding; settings: DSF, 20 µM, n=2; read-out: Mean ΔTM BRD4
T3 construct: This panel comprised ten highly ligandable kinases and bromodomains; made in house
How it was run: as §1

TRIM24 = molecular target: T4, TRIM24 (Homo sapiens, UniProt O15164); test: Liability panel screening by DSF: TRIM24; type: binding; settings: DSF, 20 µM, n=2; read-out: Mean ΔTM TRIM24
T4 construct: This panel comprised ten highly ligandable kinases and bromodomains; made in house
T4 sequence (O15164 899-1004 limits assumed): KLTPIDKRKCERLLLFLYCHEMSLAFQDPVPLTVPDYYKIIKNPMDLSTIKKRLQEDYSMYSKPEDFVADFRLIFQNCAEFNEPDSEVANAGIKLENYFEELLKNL
How it was run: as §1

MAPK1 = molecular target: T5, MAPK1 (Homo sapiens, UniProt P28482); test: Liability panel screening by DSF: MAPK1; type: binding; settings: DSF, 20 µM, n=2; read-out: Mean ΔTM MAPK1
T5 construct: made in house
How it was run: as §1

BRPF1 = molecular target: T6, BRPF1 (Homo sapiens, UniProt P55201); test: Liability panel screening by DSF: BRPF1; type: binding; settings: DSF, 20 µM, n=2; read-out: Mean ΔTM BRPF1
T6 construct: This panel comprised ten highly ligandable kinases and bromodomains; made in house
T6 sequence (P55201 628-732 limits assumed): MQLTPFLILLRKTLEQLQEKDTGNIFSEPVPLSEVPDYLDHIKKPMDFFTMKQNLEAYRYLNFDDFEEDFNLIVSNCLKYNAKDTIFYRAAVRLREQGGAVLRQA
How it was run: as §1

HEK293T cells [4] = test: Cytotoxicity: metabolic activity (WST-8 / CCK-8 assay); settings: HEK293T, 24 h, WST-8, normalized to 0.1% DMSO, single replicates
FGFR3 = molecular target: T7, FGFR3 (Homo sapiens, UniProt P22607); test: Liability panel screening by DSF: FGFR3; type: binding; settings: DSF, 20 µM, n=2; read-out: Mean ΔTM FGFR3
T7 construct: made in house
How it was run: as §1

CDK2 = molecular target: T8, CDK2 (Homo sapiens, UniProt P24941); test: Liability panel screening by DSF: CDK2; type: binding; settings: DSF, 20 µM, n=2; read-out: Mean ΔTM CDK2
T8 construct: made in house
How it was run: as §1

HEK293T cells [5] = test: Cytotoxicity: necrosis induction (red fluorescent dye for permeable plasma membranes); type: cell-based; settings: 24 h, necrotic cell count normalized to 0.1% DMSO, single replicates;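 note: compounds applied in DMEM high glucose with 0.1% FCS and 0.1% DMSO, necrotic HEK293T cells counted by red staining of cells whose plasma membranes had become permeable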
[6] = system: NF-κB activity in HEK293 NF-κB reporter cells; test: NF-kB activity assay (GFP reporter, ionomycin/PMA); type: cell-based; settings: n=3
How it was run: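 HEK293 NF-κB GFP reporter cells given compound in 0.1% DMSO for 4 h, then stimulated with ionomycin 100 ng/mL plus PMA 10 ng/mL. Imaged every 90 min over 24 h; GFP-positive cell count normalized to confluence, three independent biological replicates.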

CSNK1D = molecular target: T9, CSNK1D (Homo sapiens, UniProt P48730); test: Liability panel screening by DSF: CSNK1D; type: binding; settings: DSF, 20 µM, n=2; read-out: Mean ΔTM CSNK1D
T9 construct: made in house
How it was run: as §1

Gal4-VP16 = type: cell-based; settings: vs. DMSO ctrl, single replicates n=1-3
Method: Five hours after transfection, the cells were incubated with the NR3 CG compound candidates at the recommended concentrations by changing the medium to Opti-MEM supplemented with penicillin (100 µ/mL) and streptomycin (100 µg/mL) additionally containing 0.1% DMSO and the respective test compound or 0.1% DMSO alone as untreated control. Firefly (reporter) and renilla (control) luminescence were measured after 14–16 h incubation using the Dual-Glo® Luciferase Assay System (Promega, Fitchburg, Wisconsin, USA; #E2980) according to manufacturer’s protocol on a Tecan Spark® 10M multimode microplate reader (Tecan Group AG, Männedorf, Switzerland). To obtain relative light units (RLU) firefly luminescence was divided by renilla luminescence and multiplied by 1000. Fold activation was obtained by dividing the mean RLU of a test sample by the mean RLU of the DMSO (0.1%) control. Experiments were performed in singlets in at least three biologically independent repeats.
are labeled according to their mode of action (yellow - agonist, grey - antagonist, grey with label D - degrader) and grouped by their
NR3 subfamily main targets.
reporter activity at the indicated concentrations expressed as mean fold reporter gene activity (n=3).

T2 sequence (P49841 whole entry, species assumed): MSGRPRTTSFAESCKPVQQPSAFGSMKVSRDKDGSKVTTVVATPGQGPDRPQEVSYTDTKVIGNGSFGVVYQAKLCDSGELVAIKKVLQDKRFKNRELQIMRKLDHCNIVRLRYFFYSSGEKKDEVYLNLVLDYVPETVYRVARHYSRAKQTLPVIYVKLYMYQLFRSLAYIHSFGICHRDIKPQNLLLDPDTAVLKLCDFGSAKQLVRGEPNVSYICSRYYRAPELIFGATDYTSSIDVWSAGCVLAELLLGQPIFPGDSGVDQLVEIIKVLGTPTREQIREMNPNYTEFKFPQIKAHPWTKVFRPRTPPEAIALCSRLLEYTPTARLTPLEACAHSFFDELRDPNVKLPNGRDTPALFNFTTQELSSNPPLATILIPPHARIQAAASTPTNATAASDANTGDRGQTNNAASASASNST
T9 sequence (P48730 whole entry, species assumed): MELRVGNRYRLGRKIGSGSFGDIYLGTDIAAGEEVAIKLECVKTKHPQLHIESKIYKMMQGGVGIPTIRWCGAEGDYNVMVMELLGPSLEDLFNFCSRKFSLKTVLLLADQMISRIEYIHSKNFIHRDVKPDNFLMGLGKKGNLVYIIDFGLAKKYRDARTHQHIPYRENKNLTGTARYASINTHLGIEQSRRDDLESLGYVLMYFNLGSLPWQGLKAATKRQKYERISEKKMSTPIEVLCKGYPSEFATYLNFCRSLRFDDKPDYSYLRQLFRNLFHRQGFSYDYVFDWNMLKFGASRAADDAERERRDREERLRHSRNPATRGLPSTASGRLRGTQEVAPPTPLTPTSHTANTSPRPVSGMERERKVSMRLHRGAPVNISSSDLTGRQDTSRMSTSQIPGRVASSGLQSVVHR
T7 sequence (P22607 23-806, species assumed): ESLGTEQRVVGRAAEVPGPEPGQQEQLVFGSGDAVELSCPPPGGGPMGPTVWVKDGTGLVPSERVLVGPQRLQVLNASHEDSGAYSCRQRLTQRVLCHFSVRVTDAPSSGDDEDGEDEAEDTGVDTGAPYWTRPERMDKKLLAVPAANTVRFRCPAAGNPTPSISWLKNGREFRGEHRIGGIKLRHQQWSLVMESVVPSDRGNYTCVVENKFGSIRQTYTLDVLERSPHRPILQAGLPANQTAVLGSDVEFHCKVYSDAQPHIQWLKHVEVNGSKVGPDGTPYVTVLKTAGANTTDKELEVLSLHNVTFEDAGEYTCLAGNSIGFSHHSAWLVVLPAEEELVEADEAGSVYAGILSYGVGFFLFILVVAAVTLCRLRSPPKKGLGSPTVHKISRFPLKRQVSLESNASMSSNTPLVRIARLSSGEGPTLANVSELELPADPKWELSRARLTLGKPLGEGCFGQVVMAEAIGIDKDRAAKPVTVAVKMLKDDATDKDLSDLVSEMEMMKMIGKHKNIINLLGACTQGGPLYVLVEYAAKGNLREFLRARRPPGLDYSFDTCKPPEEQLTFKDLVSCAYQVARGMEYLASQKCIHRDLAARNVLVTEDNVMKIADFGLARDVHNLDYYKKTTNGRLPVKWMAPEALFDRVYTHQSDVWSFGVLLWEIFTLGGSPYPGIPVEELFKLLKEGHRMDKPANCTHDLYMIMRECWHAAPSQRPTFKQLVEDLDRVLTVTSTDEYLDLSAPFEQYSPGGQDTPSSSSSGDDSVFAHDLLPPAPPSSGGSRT
T1 sequence (P00519 whole entry, species assumed): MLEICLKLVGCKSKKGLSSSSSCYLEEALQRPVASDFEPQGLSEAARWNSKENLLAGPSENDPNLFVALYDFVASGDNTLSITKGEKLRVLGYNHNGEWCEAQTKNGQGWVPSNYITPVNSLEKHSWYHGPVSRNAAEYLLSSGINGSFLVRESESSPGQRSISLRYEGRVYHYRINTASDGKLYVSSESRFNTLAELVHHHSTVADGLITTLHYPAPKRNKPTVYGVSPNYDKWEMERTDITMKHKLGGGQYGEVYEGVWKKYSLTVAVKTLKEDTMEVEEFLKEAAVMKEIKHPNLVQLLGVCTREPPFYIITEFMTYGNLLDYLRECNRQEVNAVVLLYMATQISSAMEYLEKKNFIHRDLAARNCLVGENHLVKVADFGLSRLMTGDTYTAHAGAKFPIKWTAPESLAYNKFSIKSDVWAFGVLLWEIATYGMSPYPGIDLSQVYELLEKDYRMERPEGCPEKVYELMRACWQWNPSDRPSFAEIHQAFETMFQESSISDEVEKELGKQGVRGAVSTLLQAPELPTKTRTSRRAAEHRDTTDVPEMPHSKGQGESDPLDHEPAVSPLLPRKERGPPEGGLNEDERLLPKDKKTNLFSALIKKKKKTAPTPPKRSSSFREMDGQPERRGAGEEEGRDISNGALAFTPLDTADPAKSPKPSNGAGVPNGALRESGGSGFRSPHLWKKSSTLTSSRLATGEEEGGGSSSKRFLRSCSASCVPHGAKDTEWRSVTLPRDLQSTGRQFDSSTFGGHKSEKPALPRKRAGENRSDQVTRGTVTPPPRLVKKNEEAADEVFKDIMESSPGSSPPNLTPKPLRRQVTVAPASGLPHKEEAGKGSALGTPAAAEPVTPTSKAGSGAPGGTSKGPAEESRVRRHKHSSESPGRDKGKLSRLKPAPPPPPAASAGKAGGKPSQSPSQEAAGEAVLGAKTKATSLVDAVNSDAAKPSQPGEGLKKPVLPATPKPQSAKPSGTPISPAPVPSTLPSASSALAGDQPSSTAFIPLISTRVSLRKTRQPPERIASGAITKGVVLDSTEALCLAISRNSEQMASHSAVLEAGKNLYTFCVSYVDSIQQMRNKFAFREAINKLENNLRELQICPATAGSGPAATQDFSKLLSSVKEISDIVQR
T5 sequence (P28482 whole entry, species assumed): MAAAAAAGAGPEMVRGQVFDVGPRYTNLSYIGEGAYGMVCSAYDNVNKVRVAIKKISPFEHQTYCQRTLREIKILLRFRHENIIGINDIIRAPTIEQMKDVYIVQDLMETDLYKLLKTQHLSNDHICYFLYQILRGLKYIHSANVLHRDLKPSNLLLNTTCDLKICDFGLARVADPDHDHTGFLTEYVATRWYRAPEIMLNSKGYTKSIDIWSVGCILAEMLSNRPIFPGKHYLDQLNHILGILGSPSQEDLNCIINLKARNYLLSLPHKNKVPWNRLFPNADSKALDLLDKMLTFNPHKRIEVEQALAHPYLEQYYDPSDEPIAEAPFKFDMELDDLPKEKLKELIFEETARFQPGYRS

SMILES: CC/C(=C(\c1ccc(O)cc1)c1ccc(OCCN(C)C)cc1)c1ccccc1 [(Z)-4-Hydroxytamoxifen]
- Growth rate [GR] (HEK293T cells [1]; 0.3 µM): 1.08 and 2.89 and 1.33 and 1.37 and 0.91 and 0.88 and 0.61 and 1.06 and 2.68 and 37.77
- Growth rate [GR] (HEK293T cells [1]; 3 µM): 0.97 and 4.28 and 1.10 and 0.79 and 0.56 and 0.41 and 0.43 and 1.54 and 1.12 and 39.66
- ATF6 activity (tunicamycin-induced endoplasmic reticulum stress) ([2]; 0.3 µM): mediated resolution of the tunicamycin-induced endoplasmic reticulum stress
- ATF6 activity (tunicamycin-induced endoplasmic reticulum stress) ([2]; 3 µM): lacked this effect
- activity at 0.3 µM ([2]; Homo sapiens, HeLa, 0.3 µM, single replicates n=1 to n=5, read-out: ER stress [rel. ATF6 activity]): 51%
- ΔTm at 20 µM (ABL1): 0.29 °C
- Apoptosis induction [AI] (HEK293T cells [3]; 0.3 µM): 0.84 and 1.40 and 1.81 and 1.38 and 0.62 and 0.65
- Apoptosis induction [AI] (HEK293T cells [3]; 3 µM): 1.07 and 1.34 and 1.98 and 1.60 and 1.04 and 1.22
- ΔTm at 20 µM (GSK3B): -1.45 °C
- ΔTm at 20 µM (BRD4): -3.37 °C
- ΔTm at 20 µM (TRIM24): -0.41 °C
- ΔTm at 20 µM (MAPK1): 0.0336 °C
- ΔTm at 20 µM (BRPF1): -1.98 °C
- Metabolic activity [MA] (HEK293T cells [4]; 0.3 µM): 1.00 and 1.02 and 0.89 and 0.98 and 0.96 and 0.95 and 1.06 and 0.84
- Metabolic activity [MA] (HEK293T cells [4]; 3 µM): 0.88 and 0.94 and 0.92 and 0.98 and 0.96 and 0.89 and 1.00 and 0.84
- ΔTm at 20 µM (FGFR3): 0.53 °C
- ΔTm at 20 µM (CDK2): -0.23 °C
- Necrosis induction [NI] (HEK293T cells [5]; 0.3 µM): 0.97 and 1.43 and 0.88 and 1.20
- Necrosis induction [NI] (HEK293T cells [5]; 3 µM): 1.55 and 1.35 and 1.14 and 1.44
- Mean NFκB response ([6]; 0.3 µM, 1,5 h): 2504.77 GFP+-cells/confluence ∙ 1000
- Mean NFκB response ([6]; 0.3 µM, 4,5 h): 3089.76 GFP+-cells/confluence ∙ 1000
- Mean NFκB response ([6]; 0.3 µM, 7,5 h): 8223.00 GFP+-cells/confluence ∙ 1000
- Mean NFκB response ([6]; 0.3 µM, 10,5 h): 20009.52 GFP+-cells/confluence ∙ 1000
- Mean NFκB response ([6]; 0.3 µM, 13,5 h): 28937.88 GFP+-cells/confluence ∙ 1000
- Mean NFκB response ([6]; 0.3 µM, 16,6 h): 35283.33 GFP+-cells/confluence ∙ 1000
- Mean NFκB response ([6]; 0.3 µM, 19,5 h): 40116.67 GFP+-cells/confluence ∙ 1000
- Mean NFκB response ([6]; 0.3 µM, 22,5 h): 43200.00 GFP+-cells/confluence ∙ 1000
- Mean NFκB response ([6]; 0.3 µM, 3 h): 2555.89 GFP+-cells/confluence ∙ 1000
- Mean NFκB response ([6]; 0.3 µM, 6 h): 4572.00 GFP+-cells/confluence ∙ 1000
- Mean NFκB response ([6]; 0.3 µM, 9 h): 14658.14 GFP+-cells/confluence ∙ 1000
- Mean NFκB response ([6]; 0.3 µM, 12 h): 24637.27 GFP+-cells/confluence ∙ 1000
- Mean NFκB response ([6]; 0.3 µM, 15 h): 32269.00 GFP+-cells/confluence ∙ 1000
- Mean NFκB response ([6]; 0.3 µM, 18 h): 37590.00 GFP+-cells/confluence ∙ 1000
- Mean NFκB response ([6]; 0.3 µM, 21 h): 41653.33 GFP+-cells/confluence ∙ 1000
- Mean NFκB response ([6]; 0.3 µM, 24 h): 44413.33 GFP+-cells/confluence ∙ 1000
- Mean NFκB response ([6]; 3 µM, 1,5 h): 2613.90 GFP+-cells/confluence ∙ 1000
- Mean NFκB response ([6]; 3 µM, 4,5 h): 3334.14 GFP+-cells/confluence ∙ 1000
- Mean NFκB response ([6]; 3 µM, 7,5 h): 7514.38 GFP+-cells/confluence ∙ 1000
- Mean NFκB response ([6]; 3 µM, 10,5 h): 19242.21 GFP+-cells/confluence ∙ 1000
- Mean NFκB response ([6]; 3 µM, 13,5 h): 28764.40 GFP+-cells/confluence ∙ 1000
- Mean NFκB response ([6]; 3 µM, 16,6 h): 35561.15 GFP+-cells/confluence ∙ 1000
- Mean NFκB response ([6]; 3 µM, 19,5 h): 40217.80 GFP+-cells/confluence ∙ 1000
- Mean NFκB response ([6]; 3 µM, 22,5 h): 43818.60 GFP+-cells/confluence ∙ 1000
- Mean NFκB response ([6]; 3 µM, 3 h): 2770.52 GFP+-cells/confluence ∙ 1000
- Mean NFκB response ([6]; 3 µM, 6 h): 4451.37 GFP+-cells/confluence ∙ 1000
- Mean NFκB response ([6]; 3 µM, 9 h): 13511.36 GFP+-cells/confluence ∙ 1000
- Mean NFκB response ([6]; 3 µM, 12 h): 24240.37 GFP+-cells/confluence ∙ 1000
- Mean NFκB response ([6]; 3 µM, 15 h): 32735.51 GFP+-cells/confluence ∙ 1000
- Mean NFκB response ([6]; 3 µM, 18 h): 38442.69 GFP+-cells/confluence ∙ 1000
- Mean NFκB response ([6]; 3 µM, 21 h): 42295.79 GFP+-cells/confluence ∙ 1000
- Mean NFκB response ([6]; 3 µM, 24 h): 44964.03 GFP+-cells/confluence ∙ 1000
- ΔTm at 20 µM (CSNK1D): 0.12 °C
- VP16 control [fold reporter gene activity] (Gal4-VP16; 0.3 µM): 1.09 fold reporter gene activity and 0.88 fold reporter gene activity and 1.33 fold reporter gene activity
- VP16 control [fold reporter gene activity] (Gal4-VP16; 3 µM): 1.11 fold reporter gene activity and 1.04 fold reporter gene activity and 1.49 fold reporter gene activity
